Source: patent publication US8017600B2, “Imidazole compounds” (Janssen Pharmaceutica NV, priority 2004, dated 2011)

Legend:
[1] = test system: human eosinophils; experiment: Inhibition of histamine-induced eosinophil shape change (gated autofluorescence forward scatter assay); details: for Fold Change: eosinophil shape change, 10 μM antagonist; for effect on histamine-induced shape change: human eosinophils, result in words
[2] = biological target: T1, human histamine H4 receptor (Homo sapiens, UniProt Q9H3N8); experiment: Binding assay on recombinant human histamine H4 receptor (3H-histamine displacement); details: membranes of SK-N-MC or COS7 cells expressing human H4 receptor, Cheng-Prusoff
T1 construct: expressed in transfected cells; host or cells: SK-N-MC cells or COS7 cells, transient transfection; cell membranes
Procedure: SK-N-MC cells or COS7 cells were transiently transfected with pH4R and grown in 150 cm^2 tissue culture dishes. Cells were washed with saline solution, scraped with a cell scraper and collected by centrifugation (1000 rpm, 5 min). Cell membranes were prepared by homogenization of the cell pellet in 20 mM Tris-HCl with a polytron tissue homogenizer for 10 sec at high speed. Homogenate was centrifuged at 1000 rpm for 5 min at 4° C. The supernatant was then collected and centrifuged at 20,000×g for 25 min at 4° C. The final pellet was resuspended in 50 mM Tris-HCl. Cell membranes were incubated with ^3H-histamine (5-70 nM) in the presence or absence of excess histamine (10,000 nM). Incubation occurred at room temperature for 45 min. Membranes were harvested by rapid filtration over Whatman GF/C filters and washed 4 times with ice-cold 50 mM Tris HCl. Filters were then dried, mixed with scintillant and counted for radioactivity. SK-N-MC or COS7 cells expressing human histamine H4 receptor were used to measure the affinity of binding of other compounds and their ability to displace ^3H-ligand binding by incubating the above-described reaction in the presence of various concentrations of inhibitor or compound to be tested.

T1 sequence (Q9H3N8 whole entry): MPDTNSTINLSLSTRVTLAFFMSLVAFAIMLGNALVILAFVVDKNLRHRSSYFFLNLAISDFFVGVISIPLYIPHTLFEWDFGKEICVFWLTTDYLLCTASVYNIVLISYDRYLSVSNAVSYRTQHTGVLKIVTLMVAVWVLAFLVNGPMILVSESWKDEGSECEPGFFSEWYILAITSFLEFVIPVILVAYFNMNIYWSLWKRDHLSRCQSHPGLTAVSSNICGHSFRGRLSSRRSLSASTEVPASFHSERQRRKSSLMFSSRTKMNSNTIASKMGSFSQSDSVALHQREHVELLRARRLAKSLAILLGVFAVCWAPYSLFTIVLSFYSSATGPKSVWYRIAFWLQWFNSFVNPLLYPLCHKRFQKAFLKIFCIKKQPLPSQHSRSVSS

Structure (SMILES)	Ki [2] [nM]	also measured
CNC(=C[N+](=O)[O-])NCCSCc1ccc(CN(C)C)o1 [ranatidine]		Fold Change ([1]; histamine 0 μM): 1.00; Fold Change ([1]; histamine 0.01 μM): 1.04; Fold Change ([1]; histamine 0.1 μM): 1.21; Fold Change ([1]; histamine 1 μM): 1.49; Fold Change ([1]; histamine 10 μM): 1.64; effect on histamine-induced shape change [1]: did not alter the histamine-induced shape change
CN(C)CCOC(c1ccccc1)c1ccccc1 [diphenhydramine]		Fold Change ([1]; histamine 0 μM): 1.00; Fold Change ([1]; histamine 0.01 μM): 1.03; Fold Change ([1]; histamine 0.1 μM): 1.18; Fold Change ([1]; histamine 1 μM): 1.50; Fold Change ([1]; histamine 10 μM): 1.63; effect on histamine-induced shape change [1]: did not alter the histamine-induced shape change
Cc1[nH]c(-c2ccc(OCCCC3CCN(C)CC3)nc2)nc1-c1cc(Cl)cc(Cl)c1 [Example 27, 5-[4-(3,5-Dichloro-phenyl)-5-methyl-1H-imidazol-2-yl]-2-[3-(1-methyl-piperidin-4-yl)-propoxy]-pyridine]	290	
CN1CCC(CCCCOc2cccc(-c3nc4cccnc4[nH]3)c2)CC1 [Example 69, 2-{3-[4-(1-Methyl-piperidin-4-yl)-butoxy]-phenyl}-3H-imidazo[4,5-b]pyridine]	1410	
CN1CCCN(CCCOc2ccc(-c3nc(-c4ccc(Br)cc4)c(-c4ccc(Br)cc4)[nH]3)c(Cl)c2)CC1 [Example 9, 1-(3-{4-[4,5-Bis-(4-bromo-phenyl)-1H-imidazol-2-yl]-3-chloro-phenoxy}-propyl)-4-methyl-[1,4]diazepane]	11	
COc1ccc(-c2nc(-c3ccc(OCCCN4CCN(C)CC4)cc3Cl)[nH]c2-c2ccc(OC)cc2)cc1 [Example 4, 1-(3-{4-[4,5-Bis-(4-methoxy-phenyl)-1H-imidazol-2-yl]-3-chloro-phenoxy}-propyl)-4-methyl-piperazine]	44	
CN1CCC(CCCOc2ccc(-c3nc(-c4ccccc4)c(C(F)(F)F)[nH]3)cn2)CC1 [Example 31, 2-[3-(1-Methyl-piperidin-4-yl)-propoxy]-5-(4-phenyl-5-trifluoromethyl-1H-imidazol-2-yl)-pyridine]	186	
Cc1cc(OCCCC2CCN(C)CC2)ccc1-c1nc(C)c(CC(C)C)[nH]1 [Example 38, 4-{3-[4-(5-Isobutyl-4-methyl-1H-imidazol-2-yl)-3-methyl-phenoxy]-propyl}-1-methyl-piperidine]	230	
CCCc1[nH]c(-c2ccc(OCCCC3CCN(C)CC3)cc2Cl)nc1C [Example 24, 4-{3-[3-Chloro-4-(4-methyl-5-propyl-1H-imidazol-2-yl)-phenoxy]-propyl}-1-methyl-piperidine]	69	
Cc1ccc(-c2[nH]c(-c3ccc(OCCCC4CCN(C)CC4)cc3Cl)nc2-c2ccc(Cl)cc2)cc1 [Example 22, 4-(3-{3-Chloro-4-[4-(4-chloro-phenyl)-5-p-tolyl-1H-imidazol-2-yl]-phenoxy}-propyl)-1-methyl-piperidine]	29	
Cc1[nH]c(-c2ccnc(OCCCCC3CCN(C)CC3)c2)nc1-c1ccc(Cl)cc1 [Example 39, 4-[4-(4-Chloro-phenyl)-5-methyl-1H-imidazol-2-yl]-2-[4-(1-methyl-piperidin-4-yl)-butoxy]-pyridine]	230	
Cc1[nH]c(-c2ccnc(OCCCCC3CCN(C)CC3)c2)nc1-c1cccc(C(F)(F)F)c1 [Example 37, 2-[4-(1-Methyl-piperidin-4-yl)-butoxy]-4-[5-methyl-4-(3-trifluoromethyl-phenyl)-1H-imidazol-2-yl]-pyridine]	174	
Cc1cc(OCCCC2CCN(C)CC2)ccc1-c1nc(-c2cc(Cl)cc(Cl)c2)c(C)[nH]1 [Example 18, 4-(3-{4-[4-(3,5-Dichloro-phenyl)-5-methyl-1H-imidazol-2-yl]-3-methyl-phenoxy}-propyl)-1-methyl-piperidine]	45	
Cc1[nH]c(-c2ccc(OCCCC3CCN(C)CC3)nc2)nc1-c1cccc(C(F)(F)F)c1 [Example 29, 2-[3-(1-Methyl-piperidin-4-yl)-propoxy]-5-[5-methyl-4-(3-trifluoromethyl-phenyl)-1H-imidazol-2-yl]-pyridine]	42	
Cc1[nH]c(-c2ccc(OCCCN3CCN(C)CC3)nc2)nc1-c1cccc(C(F)(F)F)c1 [Example 33, 1-Methyl-4-(3-{5-[5-methyl-4-(3-trifluoromethyl-phenyl)-1H-imidazol-2-yl]-pyridin-2-yloxy}-propyl)-piperazine]	63	
Cc1cc(OCCOC2CCN(C)CC2)ccc1-c1nc(-c2cccc(C(F)(F)F)c2)c(C)[nH]1 [Example 26, 1-Methyl-4-(2-{3-methyl-4-[5-methyl-4-(3-trifluoromethyl-phenyl)-1H-imidazol-2-yl]-phenoxy}-ethoxy)-piperidine]	300	
Cc1[nH]c(-c2ccc(OCCCN3CCCN(C)CC3)c(Cl)c2)nc1-c1ccccc1 [Example 11, 1-{3-[2-Chloro-4-(5-methyl-4-phenyl-1H-imidazol-2-yl)-phenoxy]-propyl}-4-methyl-[1,4]diazepane]	70	
CN1CCN(C(=O)c2cc3cc(Cl)ccc3[nH]2)CC1 [H4 Antagonist, (5-chloro-1H-indol-2-yl)-(4-methyl-piperazin-1-yl)-methanone]		IC50 ([1]; Homo sapiens, Eosinophil, read-out: IC50 of inhibition of histamine-induced eosinophil shape change): 270 nM
CN1CCN(CCCOc2ccc(-c3nc(-c4ccccc4Cl)c(-c4ccccc4Cl)[nH]3)c(Cl)c2)CC1 [Example 3, 1-(3-{4-[4,5-Bis-(2-chloro-phenyl)-1H-imidazol-2-yl]-3-chloro-phenoxy}-propyl)-4-methyl-piperazine]	244	
